{"source": "BindingDB's records for doi:10.1080/14756360701404100", "about": "(Balikesir University Science & Art Faculty, 2008)", "details_in_all_cases": "pH 10", "key": {"Carbonic anhydrase 1 [1]": {"molecular_target": "T1, Carbonic anhydrase 1 (Homo sapiens, UniProt P00915)", "T1 sequence (P00915 whole entry)": "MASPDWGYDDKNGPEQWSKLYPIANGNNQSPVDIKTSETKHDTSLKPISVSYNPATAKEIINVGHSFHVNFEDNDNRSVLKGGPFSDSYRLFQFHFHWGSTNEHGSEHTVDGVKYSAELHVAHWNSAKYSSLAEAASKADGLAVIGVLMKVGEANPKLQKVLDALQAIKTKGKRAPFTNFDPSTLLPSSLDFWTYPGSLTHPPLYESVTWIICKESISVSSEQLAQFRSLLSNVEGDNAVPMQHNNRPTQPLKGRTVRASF", "experiment": "Hydratase Activity Assay", "method": "(§1) Carbonic anhydrase enzyme activity was assayed both with respect to its hydratase activity (i.e. hydration of CO2) and to its esterase activity (i.e. hydrolysis of an ester of p-nitrophenylacetate)"}, "Carbonic anhydrase 2 [2]": {"molecular_target": "T2, Carbonic anhydrase 2 (Homo sapiens, UniProt P00918)", "experiment": "Hydratase Activity Assay", "method": "as §1"}, "Carbonic anhydrase 1 [3]": {"molecular_target": "T1, Carbonic anhydrase 1", "experiment": "Esterase Activity Assay", "method": "as §1"}, "Carbonic anhydrase 2 [4]": {"molecular_target": "T2, Carbonic anhydrase 2", "experiment": "Esterase Activity Assay", "method": "as §1"}}, "data": [{"smiles": "Cc1cccc(-c2cc3cc(O)c(O)cc3oc2=O)c1", "note": "[MPC]", "values": [{"measurement": "IC50", "setting": "Carbonic anhydrase 1 [1]", "result": 320, "unit": "µM"}, {"measurement": "IC50", "setting": "Carbonic anhydrase 2 [2]", "result": 504, "unit": "µM"}, {"measurement": "IC50", "setting": "Carbonic anhydrase 1 [3]", "result": 837, "unit": "µM"}, {"measurement": "IC50", "setting": "Carbonic anhydrase 2 [4]", "result": 201, "unit": "µM"}]}, {"smiles": "Cc1ccccc1-c1cc2cc(O)c(O)cc2oc1=O", "note": "[OPC]", "values": [{"measurement": "IC50", "setting": "Carbonic anhydrase 1 [1]", "result": 206, "unit": "µM"}, {"measurement": "IC50", "setting": "Carbonic anhydrase 2 [2]", "result": 363, "unit": "µM"}, {"measurement": "IC50", "setting": "Carbonic anhydrase 1 [3]", "result": 153, "unit": "µM"}, {"measurement": "IC50", "setting": "Carbonic anhydrase 2 [4]", "result": 163, "unit": "µM"}]}, {"smiles": "Cc1ccc(-c2cc3cc(O)c(O)cc3oc2=O)cc1", "note": "[PPC]", "values": [{"measurement": "IC50", "setting": "Carbonic anhydrase 1 [1]", "result": 272, "unit": "µM"}, {"measurement": "IC50", "setting": "Carbonic anhydrase 2 [2]", "result": 561, "unit": "µM"}, {"measurement": "IC50", "setting": "Carbonic anhydrase 1 [3]", "result": 256, "unit": "µM"}, {"measurement": "IC50", "setting": "Carbonic anhydrase 2 [4]", "result": 127, "unit": "µM"}]}, {"smiles": "O=c1oc2cc(O)c(O)cc2cc1-c1ccccc1", "note": "[DCP]", "values": [{"measurement": "IC50", "setting": "Carbonic anhydrase 1 [1]", "result": 124, "unit": "µM"}, {"measurement": "IC50", "setting": "Carbonic anhydrase 2 [2]", "result": 61.7, "unit": "µM"}, {"measurement": "IC50", "setting": "Carbonic anhydrase 1 [3]", "result": 160, "unit": "µM"}, {"measurement": "IC50", "setting": "Carbonic anhydrase 2 [4]", "result": 246, "unit": "µM"}]}]}
